Like-named read-outs stand apart in the source and are kept apart here.

Consider 14 compounds from patent US20230027361A1, “METTL3 MODULATORS” (priority 2019, published 2023).

One experiment concerns the target METTL3/METTL14 (Homo sapiens, UniProt Q86U44). Description: METTL3-14 Standard Enzyme Assay (METTL3 biochemical assay). Put shortly: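 Tritium transfer from ³H-SAM (100 nM) to biotinylated RNA (100 nM) captured on streptavidin flashplates and counted by scintillation. Enzyme complex (2.5 nM) with compound, 5 min preincubation, 30 min reaction at ambient temperature, HEPES pH 7.5 buffer, stopped by excess unlabeled SAM.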

Another experiment has as its target METTL1/WDR4 (Homo sapiens, UniProt Q9UBP6). Description: METTL1 Assay (METTL1 biochemical assay). In short, it runs like this: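 Radiometric methyltransfer by METTL1/WDR4 (6.25 nM f.c., 5 min preincubation) at ambient temperature in HEPES pH 7.5, KCl, MgCl2, DTT; started with 25 nM 3′-biotinylated RNA and 60 nM 3H-SAM, run 20 min, quenched with 15 μM cold SAM. Product captured on streptavidin flashplates (2 h, 25° C), counted by scintillation.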

The target in a further experiment is T1, METTL16 (Homo sapiens, UniProt Q86W50).
T1 sequence (Q86W50 1-562): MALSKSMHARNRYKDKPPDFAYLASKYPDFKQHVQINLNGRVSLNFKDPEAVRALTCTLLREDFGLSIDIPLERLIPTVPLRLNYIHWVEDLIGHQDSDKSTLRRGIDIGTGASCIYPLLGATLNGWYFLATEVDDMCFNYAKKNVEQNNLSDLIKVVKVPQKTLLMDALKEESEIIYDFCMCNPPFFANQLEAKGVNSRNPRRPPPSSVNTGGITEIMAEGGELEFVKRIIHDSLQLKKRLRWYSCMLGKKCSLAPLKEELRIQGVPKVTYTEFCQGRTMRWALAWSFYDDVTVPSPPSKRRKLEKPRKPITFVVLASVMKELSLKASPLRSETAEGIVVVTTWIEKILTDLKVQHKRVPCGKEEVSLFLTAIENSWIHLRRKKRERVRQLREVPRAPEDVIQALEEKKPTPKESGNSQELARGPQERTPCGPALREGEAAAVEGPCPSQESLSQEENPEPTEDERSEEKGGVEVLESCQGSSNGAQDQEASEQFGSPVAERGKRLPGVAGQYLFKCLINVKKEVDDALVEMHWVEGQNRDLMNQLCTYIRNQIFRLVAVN
Description: METTL16 Assay (METTL16 biochemical assay). The following applies: read-out: METTL16 IC50. The procedure: Assays were performed in a 25 μl-volume in 384-well V-bottom polypropylene microplates (Greiner Bio-One, cat. No. 781280) at ambient temperature. Optimized 1× assay buffer was 20 mM HEPES pH 7.5, 50 mM KCl, 1 mM DTT, 0.01% Tween, 0.01% BSG, 0.004 U/μl RNAseOUT (cat. No. 10777019, ThermoFisher Scientific, Waltham, Mass.). For compound screening METTL16 (final concentration, f.c.=100 nM) was added using a Multidrop Combi (ThermoFisher Scientific, Waltham, Mass.) and preincubated for 5 min. Reactions were started by adding 3′ biotinylated RNA ([…]-biotin) (f.c.=50 nM), 3H-SAM (f.c.=200 nM) and non-radiolabeled SAM (f.c.=800 nM) substrates. Reactions proceeded for 20 minutes and were quenched with excess non-radioactive SAM (f.c.=100 μM). The reactions were then transferred to streptavidin-coated flashplates and incubated for 2 hours at 25° C. Following two washing cycles with 0.1% Tween-20, the plates were sealed and read on a TopCount (PerkinElmer, Waltham, Mass.) plate-based scintillation counter. For determination of kinetic parameters, reaction times were optimized so that measurements were taken during the initial velocity phase of the reaction.

In a further experiment the target is PRMT5-MEP50 (Homo sapiens, UniProt O14744). The experiment is described as follows: PRMT5 Assay (PRMT5 biochemical assay). In short, it runs like this: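 Radiometric methyltransferase read-out: after 60 min reaction, excess unlabelled SAM (15 μM) stops turnover and biotinylated H4 peptide (100 nM) carrying 3H-methyl from 250 nM 3H-SAM is captured on streptavidin flashplates (2 h, 25° C) for scintillation counting. Enzyme, 2.5 nM PRMT5-MEP50, was preincubated 5 min with compound in pH 8.0 Tris buffer with DTT and Tween.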

[1] abbreviates: read-out: METTL3 IC50; METTL3 biochemical assay.
The mark [2] stands for this setting: METTL1 biochemical assay; read-out: METTL1 IC50.
Setting [3] is: read-out: PRMT5 IC50; PRMT5 biochemical assay.
[4] abbreviates: METTL3 biochemical assay; read-out: METTL3 IC50.
[5] abbreviates: read-out: METTL1 IC50; METTL1 biochemical assay.
The mark [6] stands for this setting: PRMT5 biochemical assay; read-out: PRMT5 IC50.

PRMT5-MEP50, sequence (O14744 whole entry): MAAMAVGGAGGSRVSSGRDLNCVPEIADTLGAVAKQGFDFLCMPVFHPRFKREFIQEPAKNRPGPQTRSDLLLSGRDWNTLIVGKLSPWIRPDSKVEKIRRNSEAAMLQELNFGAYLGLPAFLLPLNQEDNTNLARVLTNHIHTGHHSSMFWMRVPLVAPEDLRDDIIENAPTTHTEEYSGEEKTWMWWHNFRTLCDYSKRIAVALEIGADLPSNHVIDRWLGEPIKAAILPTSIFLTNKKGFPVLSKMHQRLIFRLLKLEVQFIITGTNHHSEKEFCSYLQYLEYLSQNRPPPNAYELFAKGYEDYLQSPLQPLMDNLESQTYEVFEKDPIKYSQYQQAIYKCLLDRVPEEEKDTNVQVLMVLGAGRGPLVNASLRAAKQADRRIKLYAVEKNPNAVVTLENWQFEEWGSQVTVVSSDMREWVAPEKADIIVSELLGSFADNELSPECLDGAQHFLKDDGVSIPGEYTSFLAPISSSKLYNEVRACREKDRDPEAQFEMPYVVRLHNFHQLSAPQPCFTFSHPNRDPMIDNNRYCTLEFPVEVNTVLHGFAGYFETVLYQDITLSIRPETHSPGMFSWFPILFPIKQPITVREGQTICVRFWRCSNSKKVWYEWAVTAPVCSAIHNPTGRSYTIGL
PRMT5-MEP50, sequence (Q9BQA1 whole entry partner): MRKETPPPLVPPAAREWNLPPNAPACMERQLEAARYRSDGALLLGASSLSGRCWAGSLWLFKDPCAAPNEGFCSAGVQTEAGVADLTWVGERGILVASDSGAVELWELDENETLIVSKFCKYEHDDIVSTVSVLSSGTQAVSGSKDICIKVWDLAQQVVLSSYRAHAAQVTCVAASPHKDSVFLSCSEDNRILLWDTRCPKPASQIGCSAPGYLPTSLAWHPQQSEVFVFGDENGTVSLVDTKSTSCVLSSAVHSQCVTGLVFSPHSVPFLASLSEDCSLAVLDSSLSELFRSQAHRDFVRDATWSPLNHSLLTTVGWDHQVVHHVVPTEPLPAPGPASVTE
METTL3/METTL14, sequence (Q86U44 whole entry, species assumed): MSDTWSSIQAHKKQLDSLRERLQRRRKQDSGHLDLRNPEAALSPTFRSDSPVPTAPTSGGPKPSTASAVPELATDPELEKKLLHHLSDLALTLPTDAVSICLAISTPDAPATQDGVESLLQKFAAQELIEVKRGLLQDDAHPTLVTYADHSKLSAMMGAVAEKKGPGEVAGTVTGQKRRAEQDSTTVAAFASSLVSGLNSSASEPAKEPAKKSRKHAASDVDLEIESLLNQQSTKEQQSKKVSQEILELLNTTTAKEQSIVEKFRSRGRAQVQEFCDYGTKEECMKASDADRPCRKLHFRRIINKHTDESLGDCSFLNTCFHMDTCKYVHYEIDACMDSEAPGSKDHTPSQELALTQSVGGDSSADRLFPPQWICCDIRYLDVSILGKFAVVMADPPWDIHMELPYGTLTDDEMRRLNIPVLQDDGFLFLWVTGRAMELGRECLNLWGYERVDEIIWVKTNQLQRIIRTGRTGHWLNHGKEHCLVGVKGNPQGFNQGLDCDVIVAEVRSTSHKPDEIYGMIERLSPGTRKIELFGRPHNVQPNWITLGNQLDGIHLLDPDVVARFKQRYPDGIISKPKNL
METTL3/METTL14, sequence (Q9HCE5 whole entry partner, species assumed): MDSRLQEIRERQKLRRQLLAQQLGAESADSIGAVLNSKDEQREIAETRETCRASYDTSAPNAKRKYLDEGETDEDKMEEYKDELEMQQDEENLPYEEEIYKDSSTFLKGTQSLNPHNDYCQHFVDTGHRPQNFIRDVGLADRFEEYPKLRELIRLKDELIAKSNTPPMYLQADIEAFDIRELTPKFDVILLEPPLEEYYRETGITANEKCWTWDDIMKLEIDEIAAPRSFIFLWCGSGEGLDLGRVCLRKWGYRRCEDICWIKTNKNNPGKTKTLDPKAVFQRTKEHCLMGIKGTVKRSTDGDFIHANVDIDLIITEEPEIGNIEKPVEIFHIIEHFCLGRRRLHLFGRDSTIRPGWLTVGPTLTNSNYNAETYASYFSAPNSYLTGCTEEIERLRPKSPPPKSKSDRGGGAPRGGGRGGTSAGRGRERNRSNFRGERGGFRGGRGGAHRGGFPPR
METTL1/WDR4, sequence (Q9UBP6 whole entry, species assumed): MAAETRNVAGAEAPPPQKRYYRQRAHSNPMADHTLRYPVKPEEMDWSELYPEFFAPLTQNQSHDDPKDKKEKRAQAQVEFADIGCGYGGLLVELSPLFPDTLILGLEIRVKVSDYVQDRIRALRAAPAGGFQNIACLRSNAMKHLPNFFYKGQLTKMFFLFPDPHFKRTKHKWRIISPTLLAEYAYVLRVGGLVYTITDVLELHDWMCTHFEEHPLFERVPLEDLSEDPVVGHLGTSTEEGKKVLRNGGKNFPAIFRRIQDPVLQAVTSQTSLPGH
METTL1/WDR4, sequence (P57081 whole entry partner, species assumed): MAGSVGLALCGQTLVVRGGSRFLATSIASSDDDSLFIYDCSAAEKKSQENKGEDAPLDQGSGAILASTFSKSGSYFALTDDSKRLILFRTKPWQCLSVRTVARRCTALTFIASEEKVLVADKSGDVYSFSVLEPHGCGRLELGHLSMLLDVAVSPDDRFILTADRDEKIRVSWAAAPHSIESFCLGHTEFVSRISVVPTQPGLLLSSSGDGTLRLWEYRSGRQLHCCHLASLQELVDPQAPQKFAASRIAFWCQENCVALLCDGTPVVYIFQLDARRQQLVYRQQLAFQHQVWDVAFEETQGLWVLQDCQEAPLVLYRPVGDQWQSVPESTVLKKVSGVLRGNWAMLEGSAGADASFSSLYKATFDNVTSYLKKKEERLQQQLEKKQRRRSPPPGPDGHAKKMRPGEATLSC

Usually IC50 stands for the concentration needed to halve the response being measured. For `CNc1ccc2ccc(OC[C@H]3O[C@@H](n4cc(-c5ccnn5C)c5c(N)ncnc54)[C@@H](F)[C@@H]3O)cc2n1` [I-37], the IC50 on METTL3/METTL14 (setting [1]) was 10 to 100 nM; at METTL1/WDR4 (setting [2]) it was > 1000 nM; on METTL16, > 1000 nM; at PRMT5-MEP50 (setting [3]), 100 to 1000 nM.

On to `CNc1ccc2ccc(OC[C@H]3O[C@@H](n4cc(C(F)(F)F)c5c(N)ncnc54)[C@@H](F)[C@@H]3O)cc2n1` [I-38], for which the IC50 at METTL3/METTL14 (setting [4]) is 10 to 100 nM; at METTL1/WDR4 (setting [5]), > 1000 nM; on METTL16, > 1000 nM; at PRMT5-MEP50 (setting [6]), 100 to 1000 nM.

Turning to `CNc1ccc2ccc(OC[C@H]3O[C@@H](n4cc(-c5cccnc5)c5c(N)ncnc54)[C@@H](F)[C@@H]3O)cc2n1` [I-40], the half-maximal inhibitory concentration (IC50) at METTL3/METTL14 (setting [1]) was 10 to 100 nM; at METTL1/WDR4 (setting [2]), > 1000 nM; on METTL16 it was > 1000 nM; at PRMT5-MEP50 (setting [3]), 100 to 1000 nM.

On to `CNc1ccc2ccc(OC[C@H]3O[C@@H](n4cc(Br)c5c(N)nccc54)[C@@H](F)[C@@H]3O)cc2n1` [I-41], for which the 50% inhibitory concentration (IC50) on METTL3/METTL14 (setting [4]) is 100 to 1000 nM; on METTL1/WDR4 (setting [5]), > 1000 nM; on METTL16, > 1000 nM; on PRMT5-MEP50 (setting [6]), 100 to 1000 nM.

With `CNc1ccc2ccc(OC[C@H]3O[C@@H](n4cc(-c5cc(F)cc(F)c5)c5c(N)ncnc54)[C@@H](F)[C@@H]3O)cc2n1` [I-43], the IC50 on METTL3/METTL14 (setting [1]) was 100 to 1000 nM; at METTL1/WDR4 (setting [2]) it was > 1000 nM; on METTL16, > 1000 nM; on PRMT5-MEP50 (setting [3]) it was 100 to 1000 nM.

As to `CNc1ccc2ccc(OC[C@H]3O[C@@H](n4cc(C)c5c(N)ncnc54)[C@@H](F)[C@@H]3O)cc2n1` [I-44], the IC50 on METTL3/METTL14 (setting [4]) is 10 to 100 nM; at METTL1/WDR4 (setting [5]), > 1000 nM; on METTL16 it was > 1000 nM; at PRMT5-MEP50 (setting [6]) it was 10 to 100 nM.

Regarding `CNc1ccc2ccc(OC[C@H]3C[C@@H](n4cc(C5CCCC5)c5c(N)ncnc54)C[C@@H]3O)cc2n1` [I-50], the IC50 is 10 to 100 nM on METTL3/METTL14 (setting [4]), > 1000 nM on METTL1/WDR4 (setting [5]), > 1000 nM at METTL16 and 100 to 1000 nM on PRMT5-MEP50 (setting [6]).

In the case of `CCNc1ccc2ccc(OC[C@H]3O[C@@H](n4ccc5c(N)ncnc54)[C@H](O)[C@@H]3O)cc2n1` [I-67], the IC50 on METTL3/METTL14 (setting [4]) is < 10 nM; at METTL1/WDR4 (setting [5]), > 1000 nM; on METTL16, > 1000 nM; on PRMT5-MEP50 (setting [6]) it was < 10 nM.

As for `CNc1ccc2cc(OC[C@H]3O[C@@H](n4cc(Br)c5c(N)ncnc54)[C@H](O)[C@@H]3O)ccc2n1` [I-69], the IC50 at METTL3/METTL14 (setting [4]) was 10 to 100 nM; on METTL1/WDR4 (setting [2]), > 1000 nM; at METTL16, > 1000 nM; on PRMT5-MEP50 (setting [6]), 10 to 100 nM.

As to `Nc1ccc2ccc(OC[C@H]3O[C@@H](n4cc(Br)c5c(N)ncnc54)[C@H](O)[C@@H]3O)cc2n1` [I-71], the concentration for half-maximal inhibition (IC50) on METTL3/METTL14 (setting [4]) is 10 to 100 nM; on METTL1/WDR4 (setting [5]), > 1000 nM; on METTL16, > 1000 nM; at PRMT5-MEP50 (setting [6]), < 10 nM.

With `Nc1ncnc2c1c(Br)cn2[C@@H]1O[C@H](COc2ccc3ccc(N4CCCC4)nc3c2)[C@@H](O)[C@H]1O` [I-72], the IC50 is 10 to 100 nM at METTL3/METTL14 (setting [4]), > 1000 nM on METTL1/WDR4 (setting [5]), > 1000 nM at METTL16 and 10 to 100 nM on PRMT5-MEP50 (setting [6]).

For the compound `CCNc1ccc2ccc(OC[C@H]3C[C@@H](n4ccc5c(N)ncnc54)[C@H](O)[C@@H]3O)cc2n1` [I-81], the values for the IC50 on METTL3/METTL14 (setting [4]), at METTL16 and on PRMT5-MEP50 (setting [6]) were 10 to 100 nM, > 1000 nM and < 10 nM, respectively.

`Nc1ncnc2c1ccn2[C@@H]1C[C@H](COc2ccc3ccc(N4CCCC4)nc3c2)[C@@H](O)[C@H]1O` [I-82]: the IC50 on METTL3/METTL14 (setting [4]) was 100 to 1000 nM; on METTL1/WDR4 (setting [5]) it was > 1000 nM; at METTL16 it was > 1000 nM; at PRMT5-MEP50 (setting [6]), 100 to 1000 nM.

Turning to `CCNc1ccc2ccc(CC[C@H]3O[C@@H](n4ccc5c(N)ncnc54)[C@H](O)[C@@H]3O)cc2n1` [I-90], the IC50 on METTL3/METTL14 (setting [4]) was 10 to 100 nM; at METTL16 it was > 1000 nM; at PRMT5-MEP50 (setting [6]) it was < 10 nM.
